Data: ChEMBL document CHEMBL1201862, “PubChem BioAssay data set” (2004)
Active and inactive are the calls of the source.

Assays:
[1] = Luminescence Cell-Based Dose Confirmation HTS to Identify Inhibitors of Platelet Dense Granule Release. [Related pubchem assays: 1663 (Primary HTS), 1678 (Summary of Project)]; assay type: functional
[2] = target: Luciferin 4-monooxygenase (Photinus pyralis, UniProt P08659); experiment: firefly luciferase enzyme inhibitors, dose response, biochemical, luminescence (AID 1891)
[3] = microbe, parasite or virus in culture; assay type: functional; conditions: Mycobacterium tuberculosis
[4] = test system: H9c2; experiment: cells; assay type: functional, cell-based; conditions: Rattus norvegicus, H9c2, Myocardium;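 also: confirmatory concentration-response retest of ultra-high-throughput screening hits for modulation of myocardial damage; cell death induced by hydrogen peroxide oxidative stress; compound pretreatment for 60 min then peroxide exposure for 2 h; potency is for protecting the cells against peroxide damage rather than for killing them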
[5] = target: Cytochrome P450 3A4 (Homo sapiens, UniProt P08684);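 also: CYP3A4 tested as one member of a cytochrome P450 panel screen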
[6] = NIH-3T3 fibroblast cytotoxicity, dose response, cytotoxicity control, cell-based, fluorescence, Alamar Blue, secondary assay (AID 2327); assay type: functional;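 also: NIH-3T3 mouse fibroblasts cultured with fluconazole at 8 µg/mL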
[7] = C. albicans growth with fluconazole, confirmation, fluorescence, retest (AID 2467); assay type: functional, cell-based
[8] = target: Cytochrome P450 2D6 (Homo sapiens, UniProt P10635);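 also: CYP2D6 member of a cytochrome P450 panel assay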
Cytochrome P450 2D6, sequence (P10635 whole entry): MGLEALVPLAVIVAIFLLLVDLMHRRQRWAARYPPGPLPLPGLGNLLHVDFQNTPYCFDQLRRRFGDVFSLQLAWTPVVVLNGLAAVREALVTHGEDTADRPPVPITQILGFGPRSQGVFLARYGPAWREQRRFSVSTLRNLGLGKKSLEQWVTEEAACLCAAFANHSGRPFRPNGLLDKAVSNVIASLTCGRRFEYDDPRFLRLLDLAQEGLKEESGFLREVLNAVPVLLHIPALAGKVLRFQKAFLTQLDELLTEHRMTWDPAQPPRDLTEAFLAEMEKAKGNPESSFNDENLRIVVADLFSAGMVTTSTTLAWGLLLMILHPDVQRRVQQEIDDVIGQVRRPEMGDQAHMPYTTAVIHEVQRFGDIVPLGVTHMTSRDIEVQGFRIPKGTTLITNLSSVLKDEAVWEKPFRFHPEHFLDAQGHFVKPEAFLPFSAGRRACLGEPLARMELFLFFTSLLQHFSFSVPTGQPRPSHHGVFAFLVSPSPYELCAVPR

Luciferin 4-monooxygenase, sequence (P08659 whole entry): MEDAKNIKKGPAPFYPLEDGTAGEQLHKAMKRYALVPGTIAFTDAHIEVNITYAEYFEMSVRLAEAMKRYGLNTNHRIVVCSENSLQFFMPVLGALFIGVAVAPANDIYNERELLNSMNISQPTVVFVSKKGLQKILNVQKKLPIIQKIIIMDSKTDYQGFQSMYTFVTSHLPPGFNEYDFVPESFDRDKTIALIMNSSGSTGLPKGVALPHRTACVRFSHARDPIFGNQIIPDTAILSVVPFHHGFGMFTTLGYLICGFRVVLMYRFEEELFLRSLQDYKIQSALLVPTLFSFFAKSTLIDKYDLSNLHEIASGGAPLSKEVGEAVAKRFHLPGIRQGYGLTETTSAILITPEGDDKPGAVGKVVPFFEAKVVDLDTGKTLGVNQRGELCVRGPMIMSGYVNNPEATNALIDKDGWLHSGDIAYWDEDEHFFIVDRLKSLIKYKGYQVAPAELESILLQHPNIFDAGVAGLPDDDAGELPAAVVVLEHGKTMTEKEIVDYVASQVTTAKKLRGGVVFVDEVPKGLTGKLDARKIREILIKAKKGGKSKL
Cytochrome P450 3A4, sequence (P08684 whole entry): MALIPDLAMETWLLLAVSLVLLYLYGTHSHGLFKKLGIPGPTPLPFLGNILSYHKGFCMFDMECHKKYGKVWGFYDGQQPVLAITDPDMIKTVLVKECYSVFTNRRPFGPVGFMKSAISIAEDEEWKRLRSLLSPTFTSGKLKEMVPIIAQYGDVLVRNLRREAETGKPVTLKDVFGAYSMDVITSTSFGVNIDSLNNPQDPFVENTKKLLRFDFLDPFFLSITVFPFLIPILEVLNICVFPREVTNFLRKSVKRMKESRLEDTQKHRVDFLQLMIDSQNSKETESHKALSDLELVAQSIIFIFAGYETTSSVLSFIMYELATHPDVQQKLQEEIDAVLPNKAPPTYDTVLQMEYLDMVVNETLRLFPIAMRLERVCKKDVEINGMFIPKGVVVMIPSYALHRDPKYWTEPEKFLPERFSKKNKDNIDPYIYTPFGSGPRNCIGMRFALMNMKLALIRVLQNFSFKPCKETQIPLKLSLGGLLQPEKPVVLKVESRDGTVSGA

**Q.** With `Cn1c(CN2CCCC2)nc2cc(NC(=O)COc3ccccc3)ccc21` as the molecule, how does the EC50 [1] read?
**A.** > 112 µM (not active)

**Q.** What about the EC50 [2] of the same molecule?
**A.** > 112 µM (not active)

**Q.** What does the source list for `CN(C)c1ccc(-c2nc(O)c3ccccc3n2)cc1`?
**A.** EC50 [1]: 33.4 µM (active); EC50 [2]: 8.02 µM (active)

**Q.** For `CC(C)(C)N1C(=O)NC(=O)/C(=C/Nc2ccc3c(c2)CCC3)C1=O`, which CC50 [3] is on record?
**A.** > 40 µM (active)

**Q.** With `Cc1cc(Cl)ccc1NNC(=O)CCc1ccccc1` as the molecule, how does the CC50 [3] read?
**A.** > 40 µM (active)

**Q.** For `Cn1c2[n+](c3ccc(Cl)cc3c1=O)Cc1ccccc1-2`, which EC50 [1] is on record?
**A.** > 112 µM (not active)

**Q.** And the EC50 [2]?
**A.** > 112 µM (not active)

**Q.** For `COc1ccc(C(C(=O)NC2CCCC2)N(C(=O)c2snc(C(N)=O)c2N)c2cccc(O)c2)cc1` (centres undefined), which IC50 [4] is on record?
**A.** > 79 µM (inactive)

**Q.** For `Cc1cc(/C=C2\SC(Nc3ccc(F)cc3)=NC2=O)c(C)n1-c1ccc(S(N)(=O)=O)cc1`, which CC50 [3] is on record?
**A.** 12 µM (active)

**Q.** What does the source list for `COc1ccc(OC)c(NC(=O)CSc2nc(N)c(-c3ccccc3)c(O)n2)c1`?
**A.** EC50 [1]: > 112 µM (not active); EC50 [2]: > 112 µM (not active)

**Q.** What does the source list for `Cc1ccc(C(=O)c2oc3nc(C)cc(C)c3c2N)cc1`?
**A.** AC50 [5]: 891 nM (inconclusive); EC50 [6]: > 160 µM (inactive); EC50 [7]: > 38 µM (not active); AC50 [8]: 10 µM (inconclusive)

**Q.** With `CN(CC(=O)Nc1c(Cl)cccc1Cl)C(=O)Cn1[nH]c(=O)c2ccccc2c1=O` as the molecule, how does the IC50 [4] read?
**A.** > 79 µM (inactive)

**Q.** Which EC50 [1] does the source give for `CCOc1cc2[nH]c(=S)n(CCC(=O)NCc3ccco3)c(=O)c2cc1OCC` here?
**A.** > 112 µM (not active)

**Q.** And the EC50 [2]?
**A.** > 112 µM (not active)

**Q.** With `Cc1c(C2Nc3ccccc3C(=O)N2O)cnn1C` (centres undefined) as the molecule, how does the IC50 [4] read?
**A.** > 79 µM (inactive)

**Q.** For `CCOc1cc(NC(=O)CCl)c(OCC)cc1NC(C)=O`, which CC50 [3] is on record?
**A.** 25.5 µM (active)

**Q.** Which results are given for `COc1ccc(COc2cc(-c3cccc(OC)c3)nc3ccc(NC(=O)c4ccc(OC)cc4)cc23)cc1`?
**A.** IC50 [4]: > 79 µM (inactive); CC50 [3]: 15.8 µM (active)

**Q.** With `Cc1ccc2nc(O)c3cc(C(=O)N(C)c4ccc(C)c(C)c4)sc3c2c1` as the molecule, how does the EC50 [1] read?
**A.** > 112 µM (not active)

**Q.** What about the EC50 [2] of the same molecule?
**A.** > 112 µM (not active)

**Q.** What does the source list for `Cc1cc2ccccc2nc1SCC(=O)N1c2ccccc2CC1C` (centres undefined)?
**A.** EC50 [1]: 11.9 µM (active); EC50 [2]: > 112 µM (not active)

**Q.** For `C=CC[C@@H](CC(=O)N[C@H](CO)Cc1ccccc1)C(=O)N[C@@H](COC(=O)[C@@H](CC=C)CC(=O)OC(C)(C)C)Cc1ccccc1`, which IC50 [4] is on record?
**A.** 12.1 µM (active)

**Q.** For `O=C(CCc1nc(O)c2ccccc2n1)N1CCN(S(=O)(=O)c2cc(Cl)ccc2Cl)CC1`, which IC50 [4] is on record?
**A.** > 79 µM (inactive)

**Q.** For `Cc1ccc(NC(=O)c2[nH]cnc2C(=O)NCCCCCNC(=O)OC(C)(C)C)cc1`, which IC50 [4] is on record?
**A.** > 79 µM (inactive)

**Q.** With `O=C1N[C@H](Cc2c[nH]c3ccccc23)COC(=O)[C@H](Cc2ccc(F)cc2)C/C=C\C[C@H]1CC(=O)N(CCO)Cc1ccccc1` as the molecule, how does the IC50 [4] read?
**A.** > 79 µM (inactive)

**Q.** With `C[C@@H](OC(=O)c1[nH]cnc1C(=O)NCc1ccc(CNC(=O)OC(C)(C)C)cc1)c1ccccc1` as the molecule, how does the IC50 [4] read?
**A.** > 79 µM (inactive)

**Q.** With `COc1cc(C(=O)N/N=C/c2sc(N3CCOCC3)nc2-c2ccccc2)cc(OC)c1OC` as the molecule, how does the IC50 [4] read?
**A.** 9.3 µM (active)

**Q.** Which IC50 [4] does the source give for `Cc1nnc(SCC(=O)N/N=C/c2cn(-c3ccccc3)nc2-c2ccccc2)n1-c1ccccc1` here?
**A.** > 79 µM (inactive)
